In patent publication US20250134946A1 (GEL4MED, INC., priority 2021, published 2025):
Non-standard residues stand in square brackets, D forms with d. No end group written: not given here.

Key:
[1] = Net peptide charge and isoelectric point (FIGS. 9-10); assay type: physicochemical; conditions: pH 7
Source text: The peptide may be purified. For example, the peptide may be lyophilized. […] Other peptides are within the scope of the disclosure.
Exemplary peptides having a charge of +5 to +9 include […](d)[…], […](d)[…], and […](d)[…]. In other embodiments, the purified peptide may be substantially neutral. […] Net charge may be selected by peptide design. Design of electrostatic charge in the peptide hydrogel may allow control of charge interaction with cell membrane and proteins.

[2] = cited from earlier work
decorin = assay: ChaseABC release from peptide hydrogels, bioactivity on decorin (FIGS. 6B, 15); conditions: pilot data, days 3 and 5
Source text: The protein was not degraded.
In addition to release and retention rates, in analogous experiments the released and retained ChaseABC enzyme will also be assayed for bioactivity. Activity will be assessed through the efficacy of the sample to digest the small proteoglycan decorin as described previously.
Importantly, the protein was not degraded.

In the case of “VEVSVSVEV(d)PPTEVSVEVEV (VEVSVSVEV[dP]PTEVSVEVEV)”, the net charge [1] is reported as “net negative charge”.

For `O=C(O)C(F)(F)F` [trifluoroacetic acid], the pKa [2] is given as “about 0”.

In the case of chondroitinase ABC [ChaseABC], the “bioactivity of released enzyme on decorin substrate” value (decorin) is reported as “release of bioactive enzyme from the gel was demonstrated”.

For `NCCCC[C@H](N)C(=O)O` [lysine], the “side chain pKa” value [2] is listed as “about 10.5”.
